Measured values published in the NIST ThermoML archive (doi:10.1016/j.jct.2015.10.017).

Assays:
[1] = mn = molality of the nth substance listed, in mol/kg; conditions: 100 kPa, Liquid; for viscosity: Falling or rolling sphere viscometry; for speed of sound: Frequency=3 MHz, Sing-around technique in a fixed-path interferometer; for mass density: Vibrating tube method
[2] = 100 kPa, Liquid, Falling or rolling sphere viscometry

O [water] + O=P([O-])([O-])O.[K+].[K+]
[1], m2 = 0
Conditions	viscosity [mPa·s]
288.15 K	1.043
293.15 K	0.9312
298.15 K	0.8319
303.15 K	0.7981
308.15 K	0.7202

CC(=O)NCC(=O)O [N-acetylglycine] + O
[1]
Conditions	mass density, m1 = 0.05 [kg/m3]	mass density, m1 = 0.1 [kg/m3]	mass density, m1 = 0.2 [kg/m3]	speed of sound, m1 = 0.05 [m/s]	speed of sound, m1 = 0.1 [m/s]	speed of sound, m1 = 0.2 [m/s]	viscosity, m1 = 0.05 [mPa·s]	viscosity, m1 = 0.1 [mPa·s]	viscosity, m1 = 0.2 [mPa·s]
288.15 K	1001.32	1002.84	1005.54	1468.9	1472.1	1476.4	1.091	1.151	1.187
293.15 K	1000.04	1001.89	1004.84	1484.8	1486.7	1491.2	0.9664	1.019	1.048
298.15 K	998.801	1000.37	1003.79	1499.6	1501.3	1504.5	0.863	0.9071	0.9357
303.15 K	997.363	998.824	1002.6	1514	1516.3	1519	0.8379	0.8579	0.8904
308.15 K	995.711	997.285	1001.3	1521.7	1524.7	1527.2	0.7411	0.7624	0.7856

O [water] + CC(=O)NCC(=O)O
[1], m2 = 0
Conditions	viscosity [mPa·s]
288.15 K	1.043
293.15 K	0.9312
298.15 K	0.8319
303.15 K	0.7981
308.15 K	0.7202

O [water]
[2]
Conditions	viscosity [mPa·s]
288.15 K	1.043
293.15 K	0.9312
298.15 K	0.8319
303.15 K	0.7981
308.15 K	0.7202

O [water] + O=P([O-])([O-])O.[Na+].[Na+]
[1], m2 = 0
Conditions	viscosity [mPa·s]
288.15 K	1.043
293.15 K	0.9312
298.15 K	0.8319
303.15 K	0.7981
308.15 K	0.7202
